Laboratory results taken from patent US8758770B2 (Research Development Foundation, priority 2006, dated 2014).
Where no end group is shown, it is not given here.

Tests used:
Assay type in all cases: in vivo
[1] = system: EAE in C57BL/6 mice immunized with MOG peptide 35-55; assay: Oral ACTH treatment of EAE mice, clinical score; parameters: key to Clinical Score: 0 = no disease to 6 = paraplegia with severe weakness/ataxia
Experimental: EAE is a T cell mediated inflammatory autoimmune process of the CNS that resembles in some aspects the human demyelinating disease multiple sclerosis. It thus provides a useful animal model for the evaluation of potential therapies for MS. […] This protocol mimics clinical practice since patients are treated with ACTHAR® Gel after they experience a clinical exacerbation of their disease, albeit clinical treatment is via intramuscular injection.
Clinical severity is graded daily by a blinded observer as follows: 0=no disease; 1=minimal or mild hind limb weakness (associated with limp tail); 2=moderate hind limb weakness or mild ataxia (waddling gait and/or poor righting ability); 3=moderate to severe hind limb weakness; 4=severe hind limb weakness or moderate ataxia; 5=paraplegia with no more than moderate four limb weakness; 6=paraplegia with severe four limb weakness or severe ataxia. […]

[2] = system: EAE in C57BL/6 mice immunized with MOG peptide 35-55; assay: Spinal cord foci of inflammation after oral ACTH in EAE mice; settings: Ex 1-A, control mock placebo group 4.72±0.34
Experimental: Following administration, clinical outcome is measured in at least two ways: by comparing the difference between group active treatment scores and placebo group scores from day 26-33 post immunization, and comparing group mean scores directly (day 17-35 post-immunization). Following sacrifice, spinal cords are removed and evaluated independently for foci of inflammation by a blinded observer.

[3] = Toxicity of oral ACTH administered over an extended time period; settings: orally administered to mice over an extended time period

SYSMEHFRWGKPVGKKRRPVKVYPDGAEDQLAEAFPLEF [ACTH]
recovery from EAE attack compared to placebo, difference between group active treatment and placebo group scores ([1]; Ex 1-A, 10 or 1000 microgram oral dose, 10 microgram p<0.03, 1000 microgram p<0.05): significantly improved recovery | recovery compared to placebo, comparing group mean scores directly ([1]; Ex 1-A, oral doses of 10, 100, and 1000 microgram): significantly faster recovery | recovery from EAE attack compared to placebo, difference between group active treatment and group placebo scores ([1]; Ex 1-B, 10 IU p<0.0001, 100 IU p<0.0003, 1000 IU p<0.0007): significantly improved recovery | recovery from EAE attack compared to placebo, comparing group mean scores directly ([1]; Ex 1-B, oral 10 and 1000 IU, 10 IU p<0.00001, 100 IU p<0.00006, 1000 IU p<0.00003): significantly improved recovery | Clinical Score ([1]; Table 1, Ex 1-A, ACTH 10 microgram oral daily, day 28, control 2.88): 1.38 | Clinical Score ([1]; Table 1, Ex 1-A, ACTH 10 microgram oral daily, day 32, control 3): 1.38 | Clinical Score ([1]; Table 1, Ex 1-A, ACTH 10 microgram oral daily, day 33, control 3): 1.375 | Clinical Score ([1]; Table 1, Ex 1-A, ACTH 10 microgram oral daily, day 35, control 3.13): 1.38 | Clinical Score ([1]; Table 1, Ex 1-A, ACTH 100 microgram oral daily, day 22, control 2.63): 2.5 | Clinical Score ([1]; Table 2, Ex 1-B, 1000 IU oral daily, day 40, control […]): 1.13 | Clinical Score ([1]; Table 2, Ex 1-B, ACTH 10 IU oral daily, day 32, control […]): 1.38 | Clinical Score ([1]; Table 2, Ex 1-B, ACTH 10 IU oral daily, day 33, control 2): 1 | Clinical Score ([1]; Table 2, Ex 1-B, ACTH 10 IU oral daily, day 40, control […]): 1.25 | Clinical Score ([1]; Table 2, Ex 1-B, ACTH 100 IU oral daily, day 32, control […]): 1.38 | Clinical Score ([1]; Table 2, Ex 1-B, ACTH 100 IU oral daily, day 40, control […]): 1.38 | mean group inflammatory score (inflammatory foci, spinal cord) ([2]; 10 microgram fed group, p<0.008): 3.05±0.3 | mean group inflammatory score (inflammatory foci, spinal cord) ([2]; 1000 microgram fed group, p<0.00002): 2.27±0.23 | toxicity [3]: no detectable toxicity
